Measured values published in US6433022B1, “Spermicide” (Medical Research Council, priority 1997, dated 2002).

How the values were obtained:
Type in all cases: cell-based
human spermatozoa [1] = experiment: Effect of inhibitors on NADPH-induced ROS generation, lucigenin-dependent chemiluminescence; settings: for Lucigenin dependent chemiluminescence: Treated, NADPH-induced, means ± SE; for effect of mitochondrial electron transport chain inhibitors on response to NADPH: intact spermatozoa; for inhibition of the response to NAD(P)H: triton permeabilized cells; for effect on NADPH-dependent reactive oxygen species generation: dicoumarol 100 μM, sodium oxamate 1 mM, allopurinol 10 mM
Excerpt: ROS generation was monitored by luminometry employing the chemiluminescence probes lucigenin and luminol. Lucigenin is sensitive to the presence of superoxide anion and was used to monitor the free radical responses to NAD(P)H. Luminol, when used in conjunction with horseradish peroxidase (HRP; Sigma Type Vl, 288 U/mg), detects mainly hydrogen peroxide (Aitken et al., 1992) and was used to monitor the responses of spermatozoa to PMA (phorbol 12-myristate, 13-acetate), an activator of protein kinase C. […] Photon emission was monitored at 37° C. using the Bermold 9505B luminometer (Berthold, Wilbad, Germany) featuring 6 electronically compensated, peltier cooled, photomultipliers and the results expressed as counts/minute. For both of the probes used, 400 μl of spermatozoa, at a concentration of 10×10^6/ml, were placed in a 3 ml plastic, flat-bottomed plastic tube. For luminol-based reactions, the spermatozoa were suspended in BWW supplemented with Albuminar, but when lucigenin was used the Albuminar was replaced with 1 mg/ml polyvinyl alcohol. A 4 μl aliquot of a 25 mM stock solution of either luminol or lucigenin m-dimethyl sulphoxide (DMSO), was then added to the cell suspension, resulting in a final probe concentration of 250 μM. For the measurement of hydrogen peroxide generation by intact cells, luminol-dependent chemiluminescence was enhanced by addition of 8 μl of HRP, freshly prepared at a concentration of 2 mg/ml in PBS, to give a final HRP concentration of 11.52 U/ml. The luminometer results were recorded as continuous traces and as integrated photon counts over a fixed period of time (5 min).
In all experiments, DPI was added to the spermatozoa before the addition of NADPH or PMA while control incubations were supplemented with DMSO alone. ROS generation was recorded for approximately 10 min to establish a steady state signal and then 45 μl of NADPH (final concentration 500 μM) or 4 μl of PMA (final concentration 100 nM) were added and the responses monitored for around 20 min using lucigenin and luminol-peroxidase based chemiluminescence respectively.
Quinacrine was purchased from Sigma and dissolved in 10% DMSO to give a stock solution of 10 mM. […] The impact of quinacrine on NADPH- and PMA-induced ROS generation was monitored as described above for DPI.

human sperm = experiment: Effect of quinones on sperm motility; settings: for mean motility score: 50 μM quinone, human sperm
Method: Following the preparation of spermatozoa by standard Percoll gradient they were resuspended in homologous seminal plasma to a concentration of 20 million per ml, immediately prior to the beginning of the experiment. 50 μl of the sperm suspension was placed in an eppendorf tube, and the quinone was either added alone or in combination with other reagents, for example, KI, HRP (Horseradish Peroxidase), BHT (butylated hydroxytoluene) etc. depending on the experiment. The volume was made up to 100 μl with BWW/PVA.
The quinone was always the final reagent to be added. […] The sample was gently agitated and 10 μl was placed on a slide and a motility was scored. The aim was to score a motility approximately 20 seconds following the addition of the quinone. There were two controls set up, one motility count taken at the beginning of the experiment (initial control) and one motility count taken at the end of the experiment (final control). The controls consisted of 50 μl of the sperm suspension followed by the addition of 50 μl BWW/PVA. The reason for having two controls was to observe if any changes in sperm motility had occurred simply as a factor of time, i.e. from residing in seminal plasma for a long duration. At all times during the experiment, the spermatozoa were incubated in a hot box at 24° C. All motility experiments were carried out on sperm suspended in seminal plasma unless otherwise stated.

human spermatozoa [2] = experiment: Effect of inhibitors on PMA-induced hydrogen peroxide production, luminol-peroxidase chemiluminescence; settings: 100 nM PMA
Excerpt: ROS generation was monitored by luminometry employing the chemiluminescence probes lucigenin and luminol. Lucigenin is sensitive to the presence of superoxide anion and was used to monitor the free radical responses to NAD(P)H. Luminol, when used in conjunction with horseradish peroxidase (HRP; Sigma Type Vl, 288 U/mg), detects mainly hydrogen peroxide (Aitken et al., 1992) and was used to monitor the responses of spermatozoa to PMA (phorbol 12-myristate, 13-acetate), an activator of protein kinase C. […] Photon emission was monitored at 37° C. using the Bermold 9505B luminometer (Berthold, Wilbad, Germany) featuring 6 electronically compensated, peltier cooled, photomultipliers and the results expressed as counts/minute. […] The luminometer results were recorded as continuous traces and as integrated photon counts over a fixed period of time (5 min).
In all experiments, DPI was added to the spermatozoa before the addition of NADPH or PMA while control incubations were supplemented with DMSO alone. ROS generation was recorded for approximately 10 min to establish a steady state signal and then 45 μl of NADPH (final concentration 500 μM) or 4 μl of PMA (final concentration 100 nM) were added and the responses monitored for around 20 min using lucigenin and luminol-peroxidase based chemiluminescence respectively. […]

human spermatozoa [3] = experiment: Nicotinamide dinucleotide-induced superoxide generation, lucigenin-dependent chemiluminescence; settings: 500 μM nucleotide
Excerpt: ROS generation was monitored by luminometry employing the chemiluminescence probes lucigenin and luminol. Lucigenin is sensitive to the presence of superoxide anion and was used to monitor the free radical responses to NAD(P)H. Luminol, when used in conjunction with horseradish peroxidase (HRP; Sigma Type Vl, 288 U/mg), detects mainly hydrogen peroxide (Aitken et al., 1992) and was used to monitor the responses of spermatozoa to PMA (phorbol 12-myristate, 13-acetate), an activator of protein kinase C. NAD(P)H could not be used with the luminol-peroxidase system because of the generation of high background signals, presumably due to the oxidase reactions of HRP. Photon emission was monitored at 37° C. using the Bermold 9505B luminometer (Berthold, Wilbad, Germany) featuring 6 electronically compensated, peltier cooled, photomultipliers and the results expressed as counts/minute. For both of the probes used, 400 μl of spermatozoa, at a concentration of 10×10^6/ml, were placed in a 3 ml plastic, flat-bottomed plastic tube. For luminol-based reactions, the spermatozoa were suspended in BWW supplemented with Albuminar, but when lucigenin was used the Albuminar was replaced with 1 mg/ml polyvinyl alcohol. A 4 μl aliquot of a 25 mM stock solution of either luminol or lucigenin m-dimethyl sulphoxide (DMSO), was then added to the cell suspension, resulting in a final probe concentration of 250 μM. For the measurement of hydrogen peroxide generation by intact cells, luminol-dependent chemiluminescence was enhanced by addition of 8 μl of HRP, freshly prepared at a concentration of 2 mg/ml in PBS, to give a final HRP concentration of 11.52 U/ml. The luminometer results were recorded as continuous traces and as integrated photon counts over a fixed period of time (5 min).
The ability of human spermatozoa to generate superoxide anion in response to NADPH was monitored by lucigenin-dependent chemiluminescence and compared with its non-phosphorylated and non-reduced counterparts, i.e. NADH, NADP^+ and NAD^+. In addition, the stimulatory properties of an isomer of NADPH, usually non-active in reductive biosynthesis, were examined. All pyridine nucleotides were made up to the required concentration in PBS immediately prior to use. Stock solutions of the nucleotides were made up at concentrations 10 fold higher than the required final working concentration, to allow for a 10 fold dilution on addition to the suspensions of spermatozoa.

Compound: antimycin A
- Lucigenin dependent chemiluminescence (human spermatozoa [1]; inhibitor 50 μM): 10.53 ± 2.49 counts/5 min × 104
- effect of mitochondrial electron transport chain inhibitors on response to NADPH (human spermatozoa [1]): none of which were effective
- inhibition of the response to NAD(P)H (human spermatozoa [1]): no inhibition

Compound: CC1=CC(=O)c2c(O)cccc2C1=O [plumbagin]
- mean motility score (human sperm): 54%

Compound: [N-]=[N+]=[N-] [Sodium azide, sodium azide]
- Lucigenin dependent chemiluminescence (human spermatozoa [1]; inhibitor 10 μM): 7.69 ± 1.54 counts/5 min × 104

Compound: CCN(CC)CCCC(C)Nc1c2ccc(Cl)cc2nc2ccc(OC)cc12 (stereo not shown) [quinacrine]
- suppression of NADPH-induced ROS production (human spermatozoa [1]; 500 μM NADPH, concentrations as high as 50 μM, no dose/response relationship): 30-40%
- suppression of responses to PMA (human spermatozoa [2]; doses of 75-100 M): complete loss of activity

Compound: N#CC(C#N)=NNc1cccc(Cl)c1 [CCP, carbonyl cyanide m-chlorophenylhydrazone]
- Lucigenin dependent chemiluminescence (human spermatozoa [1]; inhibitor 10 μM): 12.61 ± 6.97 counts/5 min × 104
- effect of mitochondrial electron transport chain inhibitors on response to NADPH (human spermatozoa [1]): none of which were effective

Compound: NC(=O)C1=CN([C@@H]2O[C@H](COP(=O)(O)OP(=O)(O)OC[C@H]3O[C@@H](n4cnc5c(N)ncnc54)[C@H](O)[C@@H]3O)[C@@H](O)[C@H]2O)C=CC1 [NADH]
- lucigenin-dependent chemiluminescent response (superoxide anion generation) (human spermatozoa [3]): approximately one third of that induced by β-NADPH

Compound: NC(=O)c1ccc[n+]([C@@H]2O[C@H](COP(=O)([O-])OP(=O)(O)OC[C@H]3O[C@@H](n4cnc5c(N)ncnc54)[C@H](OP(=O)(O)O)[C@@H]3O)[C@@H](O)[C@H]2O)c1 [NADP^+]
- lucigenin-dependent chemiluminescent response (superoxide anion generation) (human spermatozoa [3]): almost completely without effect

Compound: O=c1oc2ccccc2c(O)c1Cc1c(O)c2ccccc2oc1=O [Dicoumarol, dicoumarol]
- Lucigenin dependent chemiluminescence (human spermatozoa [1]; inhibitor 100 μM): 5.20 ± 2.10 counts/5 min × 104
- effect on NADPH-dependent reactive oxygen species generation (human spermatozoa [1]): ineffective

Compound: NC(=O)C1=CN([C@H]2O[C@H](COP(=O)(O)OP(=O)(O)OC[C@H]3O[C@@H](n4cnc5c(N)ncnc54)[C@H](OP(=O)(O)O)[C@@H]3O)[C@@H](O)[C@H]2O)C=CC1 [α NADPH]
- lucigenin-dependent chemiluminescent response (superoxide anion generation) (human spermatozoa [3]): lack of response

Compound: O=C1C=C(O)C(=O)c2ccccc21 [lawsone]
- mean motility score (human sperm): 51%

Compound: Oc1ncnc2[nH]ncc12 [Allopurinol, allopurinol]
- Lucigenin dependent chemiluminescence (human spermatozoa [1]; inhibitor 10 mM): 7.19 ± 1.66 counts/5 min × 104
- effect on NADPH-dependent reactive oxygen species generation (human spermatozoa [1]): ineffective

Compound: c1ccc2c(c1)[I+]c1ccccc1-2 [DPI, Diphenylene Iodonium]
- suppression of NADPH-induced free radical generation (human spermatozoa [1]; 500 μM NADPH, statistically significant at the 1 μM level (P<0.001)): dose-dependent capacity to suppress
- inhibition of PMA-stimulated hydrogen peroxide production (human spermatozoa [2]; dose range 0.01-100 μM): competent to inhibit

Compound: C=C(C)[C@H]1Cc2c(ccc3c2O[C@@H]2COc4cc(OC)c(OC)cc4[C@@H]2C3=O)O1 [Rotenone, rotenone]
- Lucigenin dependent chemiluminescence (human spermatozoa [1]; inhibitor 10 μM): 9.07 ± 2.26 counts/5 min × 104
- effect of mitochondrial electron transport chain inhibitors on response to NADPH (human spermatozoa [1]): none of which were effective
- inhibition of the response to NAD(P)H (human spermatozoa [1]): no inhibition

Compound: NC(=O)C(=O)[O-].[Na+] [Sodium Oxamate, sodium oxamate]
- Lucigenin dependent chemiluminescence (human spermatozoa [1]; inhibitor 1 mM): 5.20 ± 2.10 counts/5 min × 104
- effect on NADPH-dependent reactive oxygen species generation (human spermatozoa [1]): ineffective

Compound: CC[C@H]1/C=C/C=C/C[C@@H](C)[C@H](O)[C@@](C)(O)C(=O)[C@@H](C)[C@H](O)[C@@H](C)C(=O)[C@@H](C)[C@H](O)[C@@H](C)/C=C/C(=O)O[C@@H]2[C@H](C)[C@H](CC1)O[C@]1(CC[C@H](C)[C@H](C[C@@H](C)O)O1)[C@H]2C [oligomycin]
- inhibition of the response to NAD(P)H (human spermatozoa [1]): no inhibition

Compound: O=C1C=CC(=O)c2c(O)cccc21 [juglone]
- mean motility score (human sperm): 5%
- IC50 (human sperm; human sperm in seminal plasma, motility scored approximately 20 seconds after addition, read-out: ID50, dose-dependent inhibition of sperm motility): ~10 µM

Compound: NC(=O)c1ccc[n+]([C@@H]2O[C@H](COP(=O)([O-])OP(=O)(O)OC[C@H]3O[C@@H](n4cnc5c(N)ncnc54)[C@H](O)[C@@H]3O)[C@@H](O)[C@H]2O)c1 [NAD^+]
- lucigenin-dependent chemiluminescent response (superoxide anion generation) (human spermatozoa [3]): almost completely without effect
